Values quoted from earlier work as cited in patent publication US20240279190A1, “COMPOUNDS FOR MODULATING PLATELET-TYPE 12-(S)-LIPOXYGENASE AND METHODS OF USE FOR SAME” (The Regents of The University of California, priority 2021, published 2024).

Tested on: human islets
Details: 10 μM; different batches of human islets; cited from earlier work

ML355
GSIS effect in a similar experiment: comparable results were observed
